Data: ChEMBL document CHEMBL1158719, “Cytotoxic xanthones from Cudrania tricuspidata” (J Nat Prod, 2005)

Legend:
A549 = assay: Cytotoxicity against human A549 cells after 48 hrs by SRB assay; format: functional, cell-based; settings: A549, 48 h
SK-OV-3 = assay: Cytotoxicity against human SKOV3 cells after 48 hrs by SRB assay; format: functional, cell-based; settings: SK-OV-3, 48 h

Row | Compound | IC50 (A549) | IC50 (SK-OV-3)
1 | C=CC(C)(C)c1c(O)cc(O)c2c(=O)c3c(CC=C(C)C)c(O)c(O)cc3oc12 [CUDRATRICUSXANTHONE A] | 5.93 µM | 7.09 µM
2 | C=CC(C)(C)c1c(O)cc2oc3c(CC=C(C)C)c(O)c(O)cc3c(=O)c2c1O [CUDRAXANTHONE L] | 3.15 µM | 4.72 µM
3 | C=CC(C)(C)c1c(O)c(CC=C(C)C)c2oc3cc(O)c(O)cc3c(=O)c2c1O [MACLURAXANTHONE B] | 2.88 µM | 4.24 µM
4 | CC(=O)O[C@H]1C(=O)[C@@]2(C)[C@H]([C@H](OC(=O)c3ccccc3)[C@]3(O)C[C@H](OC(=O)[C@H](O)[C@@H](NC(=O)c4ccccc4)c4ccccc4)C(C)=C1C3(C)C)[C@]1(OC(C)=O)CO[C@@H]1C[C@@H]2O [PACLITAXEL] | 1.25 µM | 1.35 µM
